Patent publication US11160887B2, “Compositions for use in diagnosing and treating melanoma, including metastatic melanoma and methods related to same” (UNM RAINFOREST INNOVATIONS, priority 2008, dated 2021)
Residues, ends and D or L forms follow the SMILES beside them.

Target: T1, MC1 receptor (B16/F1 murine melanoma cells) (Mus musculus, UniProt Q01727)
T1 construct: host or cells: B16/F1 murine melanoma cells
Experiment: In vitro competitive binding assay in B16/F1 cells (125I-Tyr2-NDP-MSH displacement)
Details: 25° C., 2 h
Experimental: In vitro Competitive Binding Assay: The IC50 values of DOTA-CycMSH and DOTA-GlyGlu-CycMSH were determined by using methods described previously (8). B16/F1 cells were harvested and seeded into a 24-well cell culture plate (5×10^5/well) and incubated at 37° C. overnight. After being washed once with binding media (MEM with 25 mM HEPES, pH 7.4, 0.2% BSA, 0.3 mM 1,10-phenathroline), the cells were incubated at room temperature (25° C.) for 2 h with approximately 50,000 cpm of ^125I-Tyr^2-[Nle^4, D-Phe^7]-α-MSH {NDP-MSH} (GE HealthCare, Piscataway, N.J.) in presence of increasing concentrations of DOTA-CycMSH or DOTA-GlyGlu-CycMSH in 0.3 ml of binding media. The reaction media were aspirated after incubation. Cells were rinsed with 0.5 ml of ice-cold pH 7.4, 0.2% BSA/0.01 M PBS twice and lysed in 0.5 ml of 1 N NaOH for 5 minutes. The activities in cells were measured in a gamma counter. The IC50 values for the peptides were calculated by using the Grafit software (Erithacus Software Limited, UK).
In vitro Competitive Binding Assay: The IC50 values of DOTA-GluGlu-CycMSH and Ac-GluGlu-CycMSH[DOTA] were determined by using methods described previously (12). B16/F1 cells were harvested and seeded into a 24-well cell culture plate (5×10^5/well) and incubated at 37° C. overnight. After being washed once with binding media (MEM with 25 mM HEPES, pH 7.4, 0.2% BSA, 0.3 mM 1,10-phenathroline), the cells were incubated at 25° C. for 2 h with approximately 50,000 cpm of ^125I-(Tyr^2)-NDP-MSH in the presence of increasing concentrations (10^−13 to 10^−6 M) of DOTA-GluGlu-CycMSH or Ac-GluGlu-CycMSH[DOTA] in 0.3 ml of binding media. The reaction media were aspirated after incubation. Cells were rinsed with 0.5 ml of ice-cold pH 7.4; 0.2% BSA/0.01 M PBS twice and lysed in 0.5 ml of 1 N NaOH for 5 min. The activities associated with cells were measured in a Wallac 1480 automated gamma counter (PerkinElmer, N.J.). The IC50 values of the peptides were calculated by using Prism software (GraphPad Software, La Jolla, Calif.).

T1 sequence (Q01727 whole entry): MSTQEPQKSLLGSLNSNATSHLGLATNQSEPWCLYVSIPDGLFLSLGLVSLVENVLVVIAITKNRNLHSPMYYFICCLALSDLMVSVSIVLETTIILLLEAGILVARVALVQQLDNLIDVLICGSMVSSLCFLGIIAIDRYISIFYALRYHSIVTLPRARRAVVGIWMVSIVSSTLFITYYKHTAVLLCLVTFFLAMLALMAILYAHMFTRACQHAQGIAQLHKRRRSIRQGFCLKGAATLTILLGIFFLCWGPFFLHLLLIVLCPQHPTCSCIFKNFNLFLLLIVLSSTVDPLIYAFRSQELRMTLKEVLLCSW

In the case of CCCC[C@@H]1NC(=O)[C@@H](NC(=O)[C@H](CCC(=O)O)NC(=O)[C@H](CCC(=O)O)NC(=O)CN2CCN(CC(=O)O)CCN(CC(=O)O)CCN(CC(=O)O)CC2)CCCCNC(=O)[C@H](CC(=O)O)NC(=O)[C@H](C(C)C)NC(=O)[C@@H]2CCCN2C(=O)[C@H](CCCNC(=N)N)NC(=O)CNC(=O)[C@H](Cc2c[nH]c3ccccc23)NC(=O)[C@H](CCCNC(=N)N)NC(=O)[C@@H](Cc2ccccc2)NC(=O)[C@H](Cc2c[nH]cn2)NC(=O)[C@H](CCC(=O)O)NC1=O [DOTA-GluGlu-CycMSH, 1,4,7,10-tetraazacyclododecane-1,4,7,10-tetraacetic acid-Glu-Glu-c[Lys-Nle-Glu-His-DPhe-Arg-Trp-Gly-Arg-Pro-Val-Asp]] (HELM PEPTIDE1{[O=C(O)CN1CCN(CC(=O)O)CCN(CC(=O)[*:2])CCN(CC(=O)O)CC1].E.E.K.[Nle].E.H.[dF].R.W.G.R.P.V.D}$PEPTIDE1,PEPTIDE1,4:R3-15:R2$$$V2.0), the IC50 is reported as 6.73 nM.
CCCC[C@@H]1NC(=O)[C@@H](NC(=O)CN2CCN(CC(=O)O)CCN(CC(=O)O)CCN(CC(=O)O)CC2)CCCCNC(=O)[C@H](CC(=O)O)NC(=O)[C@H](C(C)C)NC(=O)[C@@H]2CCCN2C(=O)[C@H](CCCNC(=N)N)NC(=O)CNC(=O)[C@H](Cc2c[nH]c3ccccc23)NC(=O)[C@H](CCCNC(=N)N)NC(=O)[C@@H](Cc2ccccc2)NC(=O)[C@H](Cc2c[nH]cn2)NC(=O)[C@H](CCC(=O)O)NC1=O [DOTA-CycMSH] (HELM PEPTIDE1{[O=C(O)CN1CCN(CC(=O)O)CCN(CC(=O)[*:2])CCN(CC(=O)O)CC1].K.[Nle].E.H.[dF].R.W.G.R.P.V.D}$PEPTIDE1,PEPTIDE1,2:R3-13:R2$$$V2.0) was tested, and the IC50 was 1.75 nM.
